Data as given in patent publication US20050197350A1, “Novel quinoline, tetrahydroquinazoline, and pyrimidine derivatives and methods of treatment related to the use thereof” (TAISHO PHARMACEUTICAL CO., LTD., priority 2003, published 2005).

System: MCH receptors
Assay: MCH receptor activity class (method not given)
Conditions: MCH receptor; class by percent of control at 10^-7 M or IC50

| Structure (SMILES) | class |
| --- | --- |
| Cc1cc(C(=O)NC[C@H]2CC[C@@H](Nc3cc(N(C)C)c4ccccc4n3)CC2)c(C)o1 [compound 198, N-[(cis-4-{[4-(dimethylamino)quinolin-2-yl]amino}cyclohexyl)methyl]-2,5-dimethyl-3-furamide] | 3 (Class 3 The value of percent of control at 10^−7 M was more than 60% or the value of IC50 was more than 200 nM.) |
| CCOc1ccccc1C(=O)NC[C@H]1CC[C@@H](Nc2cc(N(C)C)c3ccccc3n2)CC1 [compound 199] | 3 (Class 3 The value of percent of control at 10^−7 M was more than 60% or the value of IC50 was more than 200 nM.) |
| CN(C)c1cc(N[C@H]2CC[C@@H](CNC(=O)c3ccc(F)c(Cl)c3)CC2)nc2ccccc12 [compound 200] | 3 (Class 3 The value of percent of control at 10^−7 M was more than 60% or the value of IC50 was more than 200 nM.) |
| Cc1ccc(C(=O)NC[C@H]2CC[C@@H](Nc3cc(N(C)C)c4ccccc4n3)CC2)cc1F [compound 201, N-[(cis-4-{[4-(dimethylamino)quinolin-2-yl]amino}cyclohexyl)methyl]-3-fluoro-4-methylbenzamide] | 3 (Class 3 The value of percent of control at 10^−7 M was more than 60% or the value of IC50 was more than 200 nM.) |
| CN(C)c1cc(N[C@H]2CC[C@@H](CNC(=O)CC3CCCC3)CC2)nc2ccccc12 [compound 202] | 3 (Class 3 The value of percent of control at 10^−7 M was more than 60% or the value of IC50 was more than 200 nM.) |
| COc1cc(OC)cc(C(=O)NC[C@H]2CC[C@@H](Nc3cc(N(C)C)c4ccccc4n3)CC2)c1 [compound 203, N-[(cis-4-{[4-(dimethylamino)quinolin-2-yl]amino}cyclohexyl)methyl]-3,5-dimethoxybenzamide] | 3 (Class 3 The value of percent of control at 10^−7 M was more than 60% or the value of IC50 was more than 200 nM.) |
| CN(C)c1cc(N[C@H]2CC[C@@H](CNC(=O)c3ccc(C#N)cc3)CC2)nc2ccccc12 [compound 204] | 3 (Class 3 The value of percent of control at 10^−7 M was more than 60% or the value of IC50 was more than 200 nM.) |
| CN(C)c1cc(N[C@H]2CC[C@@H](CNC(=O)c3cc(C(F)(F)F)cc(C(F)(F)F)c3)CC2)nc2ccccc12 [compound 205, N-[(cis-4-{[4-(dimethylamino)quinolin-2-yl]amino}cyclohexyl)methyl]-3,5-bis(trifluoromethyl)benzamide] | 3 (Class 3 The value of percent of control at 10^−7 M was more than 60% or the value of IC50 was more than 200 nM.) |
| CN(C)c1cc(N[C@H]2CC[C@@H](CNC(=O)/C=C/c3ccc([N+](=O)[O-])cc3)CC2)nc2ccccc12 [compound 206] | 2 (Class 2: The value of percent of control at 10^−7 M was from 40% to 60% or the value of IC′50 was from 50 nM to 200 nM.) |
| CN(C)c1cc(N[C@H]2CC[C@@H](CNC(=O)Cc3ccccc3Br)CC2)nc2ccccc12 [compound 207] | 3 (Class 3 The value of percent of control at 10^−7 M was more than 60% or the value of IC50 was more than 200 nM.) |
| Cc1cc(C(=O)NC[C@H]2CC[C@@H](Nc3cc(N(C)C)c4ccccc4n3)CC2)ccc1F [compound 208, N-[(cis-4-{[4-(dimethylamino)quinolin-2-yl]amino}cyclohexyl)methyl]-4-fluoro-3-methylbenzamide] | 3 (Class 3 The value of percent of control at 10^−7 M was more than 60% or the value of IC50 was more than 200 nM.) |
| CN(C)c1cc(N[C@H]2CC[C@@H](CNC(=O)c3ccccc3SC(F)F)CC2)nc2ccccc12 [compound 209] | 3 (Class 3 The value of percent of control at 10^−7 M was more than 60% or the value of IC50 was more than 200 nM.) |
| CN(C)c1cc(N[C@H]2CC[C@@H](CNC(=O)c3cc(Cl)sc3Cl)CC2)nc2ccccc12 [compound 210] | 3 (Class 3 The value of percent of control at 10^−7 M was more than 60% or the value of IC50 was more than 200 nM.) |
| CCCSc1ncccc1C(=O)NC[C@H]1CC[C@@H](Nc2cc(N(C)C)c3ccccc3n2)CC1 [compound 211] | 3 (Class 3 The value of percent of control at 10^−7 M was more than 60% or the value of IC50 was more than 200 nM.) |
| CN(C)c1cc(N[C@H]2CC[C@@H](CNC(=O)c3cc(C(C)(C)C)nn3Cc3ccccc3)CC2)nc2ccccc12 [compound 212] | 3 (Class 3 The value of percent of control at 10^−7 M was more than 60% or the value of IC50 was more than 200 nM.) |
| CN(C)c1cc(N[C@H]2CC[C@@H](CNC(=O)c3cc(C(C)(C)C)nn3C)CC2)nc2ccccc12 [compound 213] | 3 (Class 3 The value of percent of control at 10^−7 M was more than 60% or the value of IC50 was more than 200 nM.) |
| C/C(=C\c1ccccc1)C(=O)NC[C@H]1CC[C@@H](Nc2cc(N(C)C)c3ccccc3n2)CC1 [compound 214] | 3 (Class 3 The value of percent of control at 10^−7 M was more than 60% or the value of IC50 was more than 200 nM.) |
| CN(C)c1cc(N[C@H]2CC[C@@H](CNC(=O)c3cncc(Br)c3)CC2)nc2ccccc12 [compound 215] | 3 (Class 3 The value of percent of control at 10^−7 M was more than 60% or the value of IC50 was more than 200 nM.) |

Same assay, conditions: class by percent of control at 10^-7 M or IC50

| Structure (SMILES) | class |
| --- | --- |
| CN(C)c1cc(N[C@H]2CC[C@@H](CNC(=O)Cc3cccc4ccccc34)CC2)nc2ccccc12 [compound 216] | 3 (Class 3 The value of percent of control at 10^−7 M was more than 60% or the value of IC50 was more than 200 nM.) |
| Cc1cc(C(=O)NC[C@H]2CC[C@@H](Nc3cc(N(C)C)c4ccccc4n3)CC2)nn1C(C)(C)C [compound 217] | 3 (Class 3 The value of percent of control at 10^−7 M was more than 60% or the value of IC50 was more than 200 nM.) |
| CN(C)c1cc(N[C@H]2CC[C@@H](CNC(=O)c3csc4ccccc34)CC2)nc2ccccc12 [compound 218] | 3 (Class 3 The value of percent of control at 10^−7 M was more than 60% or the value of IC50 was more than 200 nM.) |
| CN(C)c1cc(N[C@H]2CC[C@@H](CNC(=O)c3ccc(-c4ccccc4)cc3)CC2)nc2ccccc12 [compound 219] | 3 (Class 3 The value of percent of control at 10^−7 M was more than 60% or the value of IC50 was more than 200 nM.) |
| CN(C)c1cc(N[C@H]2CC[C@@H](CNC(=O)c3ccccc3Br)CC2)nc2ccccc12 [compound 220] | 3 (Class 3 The value of percent of control at 10^−7 M was more than 60% or the value of IC50 was more than 200 nM.) |
| CN(C)c1cc(N[C@H]2CC[C@@H](CNC(=O)c3c(Cl)cccc3Cl)CC2)nc2ccccc12 [compound 221] | 2 (Class 2: The value of percent of control at 10^−7 M was from 40% to 60% or the value of IC′50 was from 50 nM to 200 nM.) |
| CN(C)c1cc(N[C@H]2CC[C@@H](CNC(=O)c3ccccc3I)CC2)nc2ccccc12 [compound 222] | 3 (Class 3 The value of percent of control at 10^−7 M was more than 60% or the value of IC50 was more than 200 nM.) |
| Cc1ccccc1C(=O)NC[C@H]1CC[C@@H](Nc2cc(N(C)C)c3ccccc3n2)CC1 [compound 223] | 3 (Class 3 The value of percent of control at 10^−7 M was more than 60% or the value of IC50 was more than 200 nM.) |
| CN(C)c1cc(N[C@H]2CC[C@@H](CNC(=O)c3cccc(Cl)c3Cl)CC2)nc2ccccc12 [compound 224] | 3 (Class 3 The value of percent of control at 10^−7 M was more than 60% or the value of IC50 was more than 200 nM.) |
| CN(C)c1cc(N[C@H]2CC[C@@H](CNC(=O)c3cc(F)ccc3Cl)CC2)nc2ccccc12 [compound 225] | 3 (Class 3 The value of percent of control at 10^−7 M was more than 60% or the value of IC50 was more than 200 nM.) |
| CN(C)c1cc(N[C@H]2CC[C@@H](CNC(=O)c3cccc4c3-c3ccccc3C4=O)CC2)nc2ccccc12 [compound 226] | 3 (Class 3 The value of percent of control at 10^−7 M was more than 60% or the value of IC50 was more than 200 nM.) |
| CN(C)c1cc(N[C@H]2CC[C@@H](CNC(=O)c3c(F)ccc(F)c3F)CC2)nc2ccccc12 [compound 227] | 3 (Class 3 The value of percent of control at 10^−7 M was more than 60% or the value of IC50 was more than 200 nM.) |
| CN(C)c1cc(N[C@H]2CC[C@@H](CNC(=O)c3cccc(F)c3F)CC2)nc2ccccc12 [compound 228] | 3 (Class 3 The value of percent of control at 10^−7 M was more than 60% or the value of IC50 was more than 200 nM.) |
| CN(C)c1cc(N[C@H]2CC[C@@H](CNC(=O)c3c(F)cccc3F)CC2)nc2ccccc12 [compound 229] | 3 (Class 3 The value of percent of control at 10^−7 M was more than 60% or the value of IC50 was more than 200 nM.) |
| CN(C)c1cc(N[C@H]2CC[C@@H](CNC(=O)c3c(F)cccc3C(F)(F)F)CC2)nc2ccccc12 [compound 230] | 3 (Class 3 The value of percent of control at 10^−7 M was more than 60% or the value of IC50 was more than 200 nM.) |
| Cc1cc(C)c(C(=O)NC[C@H]2CC[C@@H](Nc3cc(N(C)C)c4ccccc4n3)CC2)c(C)c1 [compound 231, N-[(cis-4-{[4-(dimethylamino)quinolin-2-yl]amino}cyclohexyl)methyl]-2,4,6-trimethylbenzamide] | 1 (Class 1: The value of percent of control at 10^−7 M was less than 40% or the value of IC50 was less than 50 nM.) |
| CN(C)c1cc(N[C@H]2CC[C@@H](CNC(=O)c3c(F)cccc3Cl)CC2)nc2ccccc12 [compound 232] | 3 (Class 3 The value of percent of control at 10^−7 M was more than 60% or the value of IC50 was more than 200 nM.) |
| CN(C)c1cc(N[C@H]2CC[C@@H](CNC(=O)c3c(Cl)cc(Cl)cc3Cl)CC2)nc2ccccc12 [compound 233] | 1 (Class 1: The value of percent of control at 10^−7 M was less than 40% or the value of IC50 was less than 50 nM.) |
| CN(C)c1cc(N[C@H]2CC[C@@H](CNC(=O)/C=C/c3ccccc3Cl)CC2)nc2ccccc12 [compound 234, (2E)-3-(2-chlorophenyl)-N-[(cis-4-{[4-(dimethylamino)quinolin-2-yl]amino}cyclohexyl)methyl]acrylamide] | 2 (Class 2: The value of percent of control at 10^−7 M was from 40% to 60% or the value of IC′50 was from 50 nM to 200 nM.) |
| Cc1ccc(Cl)c(C(=O)NC[C@H]2CC[C@@H](Nc3cc(N(C)C)c4ccccc4n3)CC2)c1F [compound 235] | 3 (Class 3 The value of percent of control at 10^−7 M was more than 60% or the value of IC50 was more than 200 nM.) |
